Reference: patent US9603930B2, “Liquid bendamustine formulation” (Navinta, LLC, priority 2014, dated 2017)

Key:
[1] = 2 months of storage at 25° C.; cited from earlier work
[2] = polyethylene glycol alone; from U.S. Pat. No. 8,609,707; cited from earlier work
[3] = Solubility of bendamustine in solvents

Cl.Cn1c(CCCC(=O)O)nc2cc(N(CCCl)CCCl)ccc21
stability of the solid on storage [1]: degrades

Cn1c(CCCC(=O)O)nc2cc(N(CCCl)CCCl)ccc21 [Bendamustine, 4-[5-[bis(2-chloroethyl)amino]-1-methylbenzimidazol-2-yl]butanoic acid]
solubility in PEG alone [2]: poorly soluble
solubility in glycerin [3]: very high solubility
